Laboratory results published in patent US10092002B2, “Herbicidal composition comprising nicosulfuron or its salt and S -metolachlor or its salt” (ISHIHARA SANGYO KAISHA, LTD., priority 2011, dated 2018).

Experiments:
Format in all cases: in vivo
[1] = test system: annual bluegrass (Poa annua L.) having lowered sensitivity to herbicides; assay: Test Example 8: foliar treatment of annual bluegrass having lowered sensitivity to herbicides, visual growth inhibition rate; details: foliar treatment at 5 to 6-leaf stage, 14th day after treatment
Source text: When the herbicidal activity in a case where two active ingredients are combined, is larger than the simple sum of the respective herbicidal activities of the two active ingredients (the expected activity), it is called a synergistic effect. The activity expected by the combination of two active ingredients can be calculated as follows (Colby S. R., “Weed”, vol. 15, p. 20-22, 1967). E1=α+β−(α×β÷100)
Growth inhibition rate (%)=0 (equivalent to the non-treated area) to 100 (complete kill)
Upland field soil was put into a 1/1,000,000 ha pot, and seeds of annual bluegrass (Poa annua L.) having lowered sensitivity to herbicides were sown. When the annual bluegrass reached 5 to 6-leaf stage, predetermined amounts of ONEHOPE NYUZAI (tradename) and Dual Gold (tradename) were diluted with water (corresponding to 300 L/ha) and applied for foliar treatment by a small sprayer.
The growth inhibition rate (%) (measured value) and the growth inhibition rate (%) calculated in the same manner as in Test Example 1 are shown in Table 9.

[2] = test system: Japanese bristlegrass (Setaria faberi Herrm); assay: Test Example 7: soil treatment, residual activity, Japanese bristlegrass sown 14 days after treatment; details: seeds sown on the 14th day after treatment, 21st day after sowing
Source text: (§1) When the herbicidal activity in a case where two active ingredients are combined, is larger than the simple sum of the respective herbicidal activities of the two active ingredients (the expected activity), it is called a synergistic effect. The activity expected by the combination of two active ingredients can be calculated as follows (Colby S. R., “Weed”, vol. 15, p. 20-22, 1967). E1=α+β-(α×β÷100) On the 22nd day after treatment, the state of growth of the common cocklebur was visually observed to determine the growth inhibition rate in accordance with the following evaluation standard. The growth inhibition rate (%) (measured value) and the growth inhibition rate (%) (calculated value) calculated by the Colby's formula are shown in Table 1. […] Upland field soil was put into a 1/500,000 ha pot, and on the next day, predetermined amounts of […] Dual Gold (tradename) were diluted with water (corresponding to 300 L/ha) and applied for soil treatment by a small sprayer. On the 14th day after treatment, seeds of Japanese bristlegrass (Setaria faberi Herrm) and spotted knotweed, (Polygonum lapathifolium L.) were sown. On the 21st day after sowing, the state of growth of the Japanese bristlegrass and the spotted knotweed was visually observed to determined the growth inhibition rate.

[3] = test system: summergrass (Digitaria ciliaris (Retz.) Koel); assay: Test Example 5: foliar treatment of summergrass in 7 to 9-leaf stage, visual growth inhibition rate; details: foliar treatment at 7 to 9-leaf stage, 14th day after treatment
Source text: When the herbicidal activity in a case where two active ingredients are combined, is larger than the simple sum of the respective herbicidal activities of the two active ingredients (the expected activity), it is called a synergistic effect. The activity expected by the combination of two active ingredients can be calculated as follows (Colby S. R., “Weed”, vol. 15, p. 20-22, 1967). E1=α+β-(α×β÷100) On the 22nd day after treatment, the state of growth of the common cocklebur was visually observed to determine the growth inhibition rate in accordance with the following evaluation standard. The growth inhibition rate (%) (measured value) and the growth inhibition rate (%) (calculated value) calculated by the Colby's formula are shown in Table 1. […] Upland field soil was put into a 1/1,000,000 ha pot, and seeds of summergrass (Digitaria ciliaris (Retz.) Koel) were sown. When the summergrass reached 7 to 9-leaf stage, predetermined amounts of […] Dual Gold (tradename) were diluted with water (corresponding to 300 L/ha) and applied for foliar treatment by a small sprayer. On the 14th day after treatment, the state of growth of the summergrass was visually observed to determine the growth inhibition rate.

[4] = test system: spotted knotweed (Polygonum lapathifolium L.); assay: Test Example 7: soil treatment, residual activity, spotted knotweed sown 14 days after treatment; details: seeds sown on the 14th day after treatment, 21st day after sowing
Source text: as §1

| Molecule | Growth inhibition rate (%) of annual bluegrass, Measured value ([1]; dose 1000 g/ha) [%] | Growth inhibition rate (%) of annual bluegrass, Measured value ([1]; dose 2000 g/ha) [%] | Growth inhibition rate (%) of Japanese bristlegrass, Measured value ([2]; dose 250 g/ha) [%] | Growth inhibition rate (%) of summergrass, Measured value ([3]; dose 500 g/ha) [%] | Growth inhibition rate (%) of summergrass, Measured value ([3]; dose 2000 g/ha) [%] | Growth inhibition rate (%) of spotted knotweed, Measured value ([4]; dose 1000 g/ha) [%] | inhibition at 100 g/ha ([1]; Poa annua, dose 100 g/ha, read-out: Growth inhibition rate (%) of annual bluegrass, Measured value) [%] | inhibition at 100 g/ha ([2]; Setaria faberi, dose 100 g/ha, read-out: Growth inhibition rate (%) of Japanese bristlegrass, Measured value) [%] | inhibition at 15 g/ha ([3]; Digitaria ciliaris, dose 15 g/ha, read-out: Growth inhibition rate (%) of summergrass, Measured value) [%] | inhibition at 30 g/ha ([4]; Persicaria lapathifolia, dose 30 g/ha, read-out: Growth inhibition rate (%) of spotted knotweed, Measured value) [%] |
| --- | --- | --- | --- | --- | --- | --- | --- | --- | --- | --- |
| a mixture of (aRS,1S)-2-chloro-6′-ethyl-N-(2-methoxy-1-methylethyl)aceto-o-toluidide (80 to 100%) and (aRS,1R)-2-chloro-6′-ethyl-N-(2-methoxy-1-methylethyl)aceto-o-toluidide (20 to 0%) [S-metolachlor] | 18 | 28 | 10 | 0 | 0 | 0 | – | – | – | – |
| COc1cc(OC)nc(NC(=O)NS(=O)(=O)c2ncccc2C(=O)N(C)C)n1 [Nicosulfuron, 2-(4,6-dimethoxypyrimidin-2-ylcarbamoylsulfamoyl)-N,N-dimethylnicotinamide] | – | – | – | – | – | – | 87 | 33 | 53 | 75 |
